Data from ChEMBL document CHEMBL5321192, “Synthesis and screening of novel 4-N-heterocyclic-2-aryl-6,7,8-trimethoxyquinazolines as antiproliferative and tubulin polymerization inhibitors” (Bioorg Med Chem, 2022).
Active and inactive are the calls of the source. The calls are words filed in the database; no cut-off is given here.

Columns and labels:
HeLa = experiment: Antiproliferative activity against human HeLa cells assessed as cell growth inhibition incubated for 48 hrs by MTT assay; type: functional, cell-based
HT-29 = experiment: Antiproliferative activity against human HT-29 cells assessed as cell growth inhibition incubated for 48 hrs by MTT assay; type: functional, cell-based; conditions: HT-29, 48 h
[1] = Cytotoxicity against human HEK293T cells assessed as cell growth inhibition incubated for 48 hrs by MTT assay; type: toxicity, cell-based, HEK-293T
MCF7 [2] = experiment: Antiproliferative activity against human MCF7 cells assessed as cell growth inhibition incubated for 48 hrs by MTT assay; type: functional, cell-based; conditions: MCF7, 48 h
MCF7 [3] = experiment: Induction of cell cycle arrest in human MCF7 cells assessed as accumulation of cells at G1/G0 phase at 10 uM incubated for 48 hrs by propidium iodide staining based flow cytometer analysis (reference value: 53.8 %); type: functional
MCF7 [4] = experiment: Induction of cell cycle arrest in human MCF7 cells assessed as accumulation of cells at G2/M phase at 10 uM incubated for 48 hrs by propidium iodide staining based flow cytometer analysis (reference value: 31.9 %); type: functional
MCF7 [5] = experiment: Induction of apoptosis in human MCF7 cells assessed as necrotic cells at 10 uM incubated for 48 hrs by Annexin V-FITC/propidium iodide staining based flow cytometric analysis (reference value: 1.3 %); type: functional
Tubulin (Sus scrofa) [6] = target: T1, Tubulin (Sus scrofa) (UniProt P02554+P02550); experiment: Inhibition of porcine brain tubulin polymerization incubated for 60 mins in presence of GTP by spectrophotometric analysis; type: tissue-based
T1 sequence (P02550 whole entry, looked up): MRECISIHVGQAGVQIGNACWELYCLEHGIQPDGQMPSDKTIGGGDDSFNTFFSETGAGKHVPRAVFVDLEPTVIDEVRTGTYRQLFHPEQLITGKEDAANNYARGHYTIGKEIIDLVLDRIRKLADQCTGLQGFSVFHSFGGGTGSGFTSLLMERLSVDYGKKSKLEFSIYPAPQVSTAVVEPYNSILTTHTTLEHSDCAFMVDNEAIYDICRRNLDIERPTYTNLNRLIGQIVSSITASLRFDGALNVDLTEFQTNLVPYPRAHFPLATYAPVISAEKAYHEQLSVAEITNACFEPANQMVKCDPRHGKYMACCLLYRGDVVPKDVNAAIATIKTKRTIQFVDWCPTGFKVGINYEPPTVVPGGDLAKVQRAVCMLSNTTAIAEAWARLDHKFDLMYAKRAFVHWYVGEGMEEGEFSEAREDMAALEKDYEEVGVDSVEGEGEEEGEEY
T1 sequence (P02554 whole entry, looked up): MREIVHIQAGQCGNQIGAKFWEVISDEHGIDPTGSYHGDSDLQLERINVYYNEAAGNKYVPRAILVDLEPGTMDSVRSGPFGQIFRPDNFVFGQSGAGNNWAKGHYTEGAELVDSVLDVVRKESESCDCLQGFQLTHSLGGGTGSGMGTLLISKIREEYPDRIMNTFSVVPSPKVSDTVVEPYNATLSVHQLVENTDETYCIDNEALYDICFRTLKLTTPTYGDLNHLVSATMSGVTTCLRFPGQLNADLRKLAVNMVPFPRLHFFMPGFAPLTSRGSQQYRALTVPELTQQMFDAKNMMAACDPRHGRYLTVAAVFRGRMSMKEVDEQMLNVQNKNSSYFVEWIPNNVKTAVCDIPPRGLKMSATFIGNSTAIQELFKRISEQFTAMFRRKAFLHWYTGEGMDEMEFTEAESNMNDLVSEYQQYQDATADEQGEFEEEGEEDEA

Tubulin (Sus scrofa) [7] = target: T1, Tubulin (Sus scrofa); experiment: Inhibition of porcine brain tubulin polymerization at 100 nM incubated for 60 mins in presence of GTP by spectrophotometric analysis; type: tissue-based
MCF7 [8] = experiment: Induction of apoptosis in human MCF7 cells assessed as viable cells at 10 uM incubated for 48 hrs by Annexin V-FITC/propidium iodide staining based flow cytometric analysis; type: functional; conditions: read-out: Activity
MCF7 [9] = experiment: Induction of apoptosis in human MCF7 cells assessed as late apoptotic cells at 10 uM incubated for 48 hrs by Annexin V-FITC/propidium iodide staining based flow cytometric analysis (reference value: 3.4 %); type: functional
MCF7 [10] = experiment: Induction of cell cycle arrest in human MCF7 cells assessed as accumulation of cells at S phase at 10 uM incubated for 48 hrs by propidium iodide staining based flow cytometer analysis (reference value: 14.6 %); type: functional
MCF7 [11] = experiment: Induction of apoptosis in human MCF7 cells assessed as early apoptotic cells at 10 uM incubated for 48 hrs by Annexin V-FITC/propidium iodide staining based flow cytometric analysis (reference value: 2.4 %); type: functional
Cell membrane = experiment: Induction of mitochondrial membrane potential depolarization in human MCF7 cells at 10 uM incubated for 48 hrs by JC-1 staining based microplate reader assay; type: subcellular
Tubulin (Sus scrofa) [12] = target: T1, Tubulin (Sus scrofa); experiment: Inhibition of porcine brain tubulin polymerization at 3 uM incubated for 60 mins in presence of GTP by spectrophotometric analysis; type: tissue-based

Compound	IC50 (HeLa) [µM]	IC50 (HT-29) [µM]	IC50 at 48 h [1] [µM]	IC50 (MCF7 [2]) [µM]	also measured
COc1cc2c(N3CCOCC3)nc(-c3ccccc3)nc2c(OC)c1OC	> 25	> 25	> 25	> 25	
COc1cc2c(-n3ccnc3)nc(-c3ccc(Cl)cc3)nc2c(OC)c1OC	8.53	10.4	> 25	2.16	Activity (MCF7 [3]): 11.5%; Activity (MCF7 [4]): 82.6%; Activity (MCF7 [5]): 4.1%; inhibition (Tubulin (Sus scrofa) [6]): Dose-Dependent Effect; inhibition (Tubulin (Sus scrofa) [7]): Active; viability at 10 µM (MCF7 [8]): 34.9%; Activity (MCF7 [9]): 41.1%; Activity (MCF7 [10]): 4.9%; Activity (MCF7 [11]): 19.9%; Activity (Cell membrane): Active
COc1cc2c(-n3cnnc3)nc(-c3ccccc3C(F)(F)F)nc2c(OC)c1OC	> 25	11.8	> 25	13.7	
COc1cc2c(-n3cnnc3)nc(-c3ccccc3)nc2c(OC)c1OC	> 25	> 25	> 25	> 25	
CC(=O)O[C@H]1C(=O)[C@@]2(C)[C@H]([C@H](OC(=O)c3ccccc3)[C@]3(O)C[C@H](OC(=O)[C@H](O)[C@@H](NC(=O)c4ccccc4)c4ccccc4)C(C)=C1C3(C)C)[C@]1(OC(C)=O)CO[C@@H]1C[C@@H]2O					inhibition (Tubulin (Sus scrofa) [12]): Active
COc1cc2c(-n3ccnc3)nc(-c3ccc(Br)cc3)nc2c(OC)c1OC	17.4	6.76	> 25	6.37	Activity (MCF7 [3]): 70.3%; Activity (MCF7 [4]): 17.7%; Activity (MCF7 [5]): 7.9%; viability at 10 µM (MCF7 [8]): 11.8%; Activity (MCF7 [9]): 70.9%; Activity (MCF7 [10]): 8.5%; Activity (MCF7 [11]): 9.4%; Activity (Cell membrane): inactive
COc1cc2c(-n3cnnc3)nc(-c3ccc(Cl)cc3)nc2c(OC)c1OC	13.3	> 25	> 25	8.33	
COc1ccc(-c2nc(-n3nnc4ccccc43)c3cc(OC)c(OC)c(OC)c3n2)cc1	> 25	> 25	> 25	18.1	
COc1cc2c(-n3nnc4ccccc43)nc(-c3ccccc3)nc2c(OC)c1OC	> 25	23.1	> 25	14.4	
COc1cc2c(-n3cnnc3)nc(-c3ccc(Br)cc3)nc2c(OC)c1OC	> 25	> 25	> 25	8.59	
COc1cc2c(-n3nnc4ccccc43)nc(-c3ccc(Br)cc3)nc2c(OC)c1OC	10.2	> 25	> 25	15.2	
COc1cc(-c2nc(-n3nnc4ccccc43)c3cc(OC)c(OC)c(OC)c3n2)cc(OC)c1OC	> 25	> 25	> 25	> 25	
COc1cc2c(c(OC)c1OC)-c1ccc(OC)c(=O)cc1[C@@H](NC(C)=O)CC2 [COLCHICINE]	17.8		> 25		Activity (MCF7 [3]): 5.4%; Activity (MCF7 [4]): 89.4%; Activity (MCF7 [5]): 2.8%; viability at 10 µM (MCF7 [8]): 27.7%; Activity (MCF7 [9]): 54%; Activity (MCF7 [10]): 4.1%; Activity (MCF7 [11]): 15.5%
COc1ccc(-c2nc(-n3ccnc3)c3cc(OC)c(OC)c(OC)c3n2)cc1OC	18.7	> 25	> 25	22.1	
COc1ccc(-c2nc(-n3cnnc3)c3cc(OC)c(OC)c(OC)c3n2)cc1	10.3	> 25	> 25	> 25	
COc1cc(-c2nc(-n3cnnc3)c3cc(OC)c(OC)c(OC)c3n2)cc(OC)c1OC	> 25	5.45	> 25	23.4	
COc1cc2c(-n3ccnc3)nc(-c3ccccc3)nc2c(OC)c1OC	14.7	15.2	> 25	12.2	
COc1cc2c(-n3nnc4ccccc43)nc(-c3ccc(Cl)cc3)nc2c(OC)c1OC	> 25	13	> 25	16.2	
